Data: ChEMBL document CHEMBL1133097, “N-Terminal dipeptides of D(-)-penicillamine as sequestration agents for acetaldehyde” (2000)

How the values were obtained:
[1] = Percent inhibition in hepatocyte culture system at 1/20 molar concentration of ethanol and lowered concentration of ethanol-derived AcH; type: functional, Rattus norvegicus
[2] = Percent inhibition in hepatocyte culture system in the presence of cyanamide at 1/20 molar concentration of ethanol and lowered concentration of ethanol-derived AcH; type: functional, Rattus norvegicus

SMILES	Inhibition [1] [%]	Inhibition [2] [%]
C[C@H](NC(=O)[C@H](N)C(C)(C)S)C(=O)O.Cl	84	–
CC(C)(NC(=O)[C@H](N)C(C)(C)S)C(=O)O.Cl	–	37
CC(C)(S)[C@@H](N)C(=O)NCC(=O)O.Cl	79	33
